This series deals with hiPS-CMs monolayer. Nature of the series: Electric field potential of hiPS-CM monolayers (CardioExcyte96). The format is cell-based, human. The source says:
The excitability abnormalities recorded on single hiPS-CM APs should translate into larger abnormalities when these cells are interacting with each other in monolayers. To assess this issue, we investigated the electrical excitability of hiPS-CM monolayers using the CardioExcyte96 system (Nanion). This system monitors both the electric field potential (EFP), which reflects the concerted electrical activity of the cell monolayer, and the impedance changes due to cell contractions, which will be described below. […] As saturating concentrations of BeKm-1 (100 nM) induced the arrest of spontaneous APs in individual cells, we were interested to see what may happen on a monolayer of hiPS-CMs.
hiPS-CMs: All experiments were performed on the human-induced pluripotent stem cell (hiPSC) clone C2a that has been previously characterized, including cardiac differentiation and electrophysiology data. Cells were expanded on stem cell-qualified matrigel-coated plates (0.05 mg/mL; BD Bioscience, Le Pont de Claix, France) and cultured in StemMACS iPS-BREW XF medium (Miltenyi Biotec, Paris, France). Cells were passaged every […] using Gentle Cell Dissociation Buffer (StemCell Technologies, Grenoble, France). Prior to differentiation, cells were cultured as a monolayer in StemMACS iPS-brew supplemented with 1 × Y-27632 Rho-associated, coiled-coil containing protein kinase (ROCK) inhibitor (StemCell Technologies, Grenoble, France). When hiPSCs reached proper confluence, they were differentiated into cardiomyocytes using previously described « Matrix sandwich » protocol. At day 20 ± 1 of differentiation, beating cardiomyocytes were manually dissected and isolated from non-beating cells. Briefly, cardiomyocytes were washed with phosphate-buffered saline (PBS) and treated with TrypLE Express (10x) (Thermo Fisher Scientific, Illkirch-Graffenstaden, France) for 5 min at 37 °C. The enzyme was inactivated by adding RPMI1640 medium containing 20% (vol/vol) KnockOut Serum Replacement (KSR) (Thermo Fisher Scientific, Illkirch-Graffenstaden, France). […]
The beating properties and the electrical field potentials of hiPS-CMs were evaluated with a CardioExcyte96 system. […] Meanwhile, cells were monitored to ensure the full stabilization of beating parameters until BeKm-1 was tested at various concentrations ([…]). Tfall and Trise were determined as the time between 10% and 90% of contraction or relaxation, respectively. Pulse width (PWx) was determined as the time corresponding to the width of the signal at 90% of relaxation. Electric field potentials (EFPs) were recorded using CardioExcyte96 system. For both contraction and EFPs, 10 sequences of 30 s of acquisition were analyzed before and after BeKm-1 addition. […]

Entries after “also recorded” stand apart in the source; their conditions may differ. Positions of bridges follow the written chain, without caps; N, C: chain ends. Residues, ends and D or L forms follow the SMILES beside them.

`CC[C@H](C)[C@H](NC(=O)[C@H](CC(=O)O)NC(=O)[C@@H](NC(=O)[C@@H]1CCCN1C(=O)[C@@H](N)CCCNC(=N)N)[C@@H](C)O)C(=O)N[C@@H](CCCCN)C(=O)N[C@H]1CSSC[C@@H]2NC(=O)[C@H](CCCNC(=N)N)NC(=O)CNC(=O)[C@H](CC(N)=O)NC(=O)[C@H]([C@@H](C)O)NC(=O)[C@H](CCCCN)NC(=O)CNC(=O)[C@H](Cc3ccccc3)NC(=O)[C@H](CCCNC(=N)N)NC(=O)[C@H](CO)NC(=O)[C@H](CCCCN)NC(=O)[C@@H]3CSSC[C@@H](C(=O)N[C@@H](Cc4ccccc4)C(=O)O)NC(=O)[C@H](CC(=O)O)NC(=O)[C@H](CSSC[C@H](NC(=O)[C@H](CCC(N)=O)NC(=O)[C@H](Cc4ccc(O)cc4)NC(=O)[C@H](CO)NC(=O)[C@H](CCC(=O)O)NC(=O)[C@H](CO)NC1=O)C(=O)N[C@@H](Cc1ccccc1)C(=O)N1CCC[C@H]1C(=O)N[C@@H](C(C)C)C(=O)N3)NC(=O)[C@H](Cc1ccccc1)NC(=O)CNC(=O)[C@H](CC(N)=O)NC(=O)[C@H](C(C)C)NC2=O` [BeKm-1] (H-RPTDIKCSESYQCFPVCKSRFGKTNGRCVNGFCDCF-OH; disulfide 7-28, 13-33, 17-35 (inferred); N-terminus and C-terminus assumed): the EFP duration (2 nM, 37 °C, vehicle 2.8 ± 0.1 s, n = 5, mean ± SEM) came out at 3.4 ± 0.2 s. The “spontaneous depolarization in EFP” value (2 nM, Figure 4A) was “presence of spontaneous depolarization”. The EFP arrhythmic waveforms entry (100 nM) is “sustained waveforms of tachyarrhythmia, and TdP-like polymorphic waveforms; also recorded: increase in beats frequency and fibrillation-like pattern”. Where the note is “100 nM, 37 °C, vehicle 0.2 ± 0.1 Hz, n = 5, mean ± SEM, significant”, the EFP frequency is on record as 0.7 ± 0.1 Hz.

These data come from article PMC7582727, “Functional Impact of BeKm-1, a High-Affinity hERG Blocker, on Cardiomyocytes Derived from Human-Induced Pluripotent Stem Cells” (International Journal of Molecular Sciences, 2020).
